For 11 molecules, IC50 results are on record in US12258328B2, “6-membered heteroaryl-containing aminopyridine compounds as EGFR inhibitors” (YUHAN CORPORATION, priority 2021, dated 2025).

Like-named read-outs stand apart in the source and are kept apart here.

Experiment [1] has as its target EGFR L858R/T790M/C797S (Homo sapiens, UniProt P00533, C797S/L858R/T790M). Nature of the experiment: Biochemical EGFR kinase assay (Lance Ultra TR-FRET), triple mutant L858R/T790M/C797S. An outline of the steps: (§1)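 In this biochemical assay, phosphorylation after a one-hour room-temperature reaction was detected with europium-labelled anti-phosphopeptide antibody at 2 nM final concentration.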
In general terms: Time-resolved FRET reads energy transfer from a long-lived donor to a nearby acceptor.

Experiment [2] has as its target EGFR wildtype (Homo sapiens, UniProt P00533). Nature of the experiment: Biochemical EGFR kinase assay (Lance Ultra TR-FRET), wildtype. An outline of the steps:
as §1

Experiment [3] addresses EGFR del19/T790M/C797S (Homo sapiens, UniProt P00533, C797S/DEL746-750/T790M). Nature of the experiment: Biochemical EGFR kinase assay (Lance Ultra TR-FRET), triple mutant del19/T790M/C797S. The method, boiled down: as §1
For experiment [4], the target named is EGFR L858R/C797S (Homo sapiens, UniProt P00533, C797S/L858R). Nature of the experiment: Biochemical EGFR kinase assay (Lance Ultra TR-FRET), double mutant L858R/C797S. The method, boiled down: as §1
In experiment [5] the target is EGFR del19/C797S (Homo sapiens, UniProt P00533, C797S/DEL746-750). In words: Biochemical EGFR kinase assay (Lance Ultra TR-FRET), double mutant del19/C797S. An outline of the steps:
as §1

Where [6] appears, read: ATP at Km, read-out: IC50 L858R/T790M/C797S, Km ATP.
[7] abbreviates: ATP at Km, read-out: IC50 WT, Km ATP.
[8] abbreviates: ATP at Km, read-out: IC50 del19/T790M/C797S, Km ATP.
Where [9] appears, read: ATP at Km, read-out: IC50 L858R/C797S, Km ATP.
Where [10] appears, read: ATP at Km, read-out: IC50 del19/C797S, Km ATP.
[11] abbreviates: IC50 L858R/T790M/C797S (nM) 100 μM ATP, 100 μM ATP.
Where [12] appears, read: Km ATP, read-out: IC50 L858R/T790M/C797S (nM) Km ATP.
Where [13] appears, read: IC50 WT (nM) 100 μM ATP, 100 μM ATP.
[14] abbreviates: Km ATP, read-out: IC50 WT (nM) Km ATP.
Setting [15] is: IC50 del19/T790M/C797S (nM) 100 μM ATP, 100 μM ATP.
The mark [16] stands for this setting: Km ATP, read-out: IC50 del19/T790M/C797S (nM) Km ATP.
The mark [17] stands for this setting: IC50 L858R/C797S (nM) 100 μM ATP, 100 μM ATP.
[18] abbreviates: Km ATP, read-out: IC50 L858R/C797S (nM) Km ATP.
The mark [19] stands for this setting: IC50 del19/C797S (nM) 100 μM ATP, 100 μM ATP.
The mark [20] stands for this setting: Km ATP, read-out: IC50 del19/C797S (nM) Km ATP.
The mark [21] stands for this setting: IC50 L858R/T790M/C797S, 100 μM ATP.
Where [22] appears, read: IC50 del19/T790M/C797S, 100 μM ATP.

Chain of EGFR del19/T790M/C797S (P00533 with tags, fused parts or gaps DEL746-750/T790M/C797S): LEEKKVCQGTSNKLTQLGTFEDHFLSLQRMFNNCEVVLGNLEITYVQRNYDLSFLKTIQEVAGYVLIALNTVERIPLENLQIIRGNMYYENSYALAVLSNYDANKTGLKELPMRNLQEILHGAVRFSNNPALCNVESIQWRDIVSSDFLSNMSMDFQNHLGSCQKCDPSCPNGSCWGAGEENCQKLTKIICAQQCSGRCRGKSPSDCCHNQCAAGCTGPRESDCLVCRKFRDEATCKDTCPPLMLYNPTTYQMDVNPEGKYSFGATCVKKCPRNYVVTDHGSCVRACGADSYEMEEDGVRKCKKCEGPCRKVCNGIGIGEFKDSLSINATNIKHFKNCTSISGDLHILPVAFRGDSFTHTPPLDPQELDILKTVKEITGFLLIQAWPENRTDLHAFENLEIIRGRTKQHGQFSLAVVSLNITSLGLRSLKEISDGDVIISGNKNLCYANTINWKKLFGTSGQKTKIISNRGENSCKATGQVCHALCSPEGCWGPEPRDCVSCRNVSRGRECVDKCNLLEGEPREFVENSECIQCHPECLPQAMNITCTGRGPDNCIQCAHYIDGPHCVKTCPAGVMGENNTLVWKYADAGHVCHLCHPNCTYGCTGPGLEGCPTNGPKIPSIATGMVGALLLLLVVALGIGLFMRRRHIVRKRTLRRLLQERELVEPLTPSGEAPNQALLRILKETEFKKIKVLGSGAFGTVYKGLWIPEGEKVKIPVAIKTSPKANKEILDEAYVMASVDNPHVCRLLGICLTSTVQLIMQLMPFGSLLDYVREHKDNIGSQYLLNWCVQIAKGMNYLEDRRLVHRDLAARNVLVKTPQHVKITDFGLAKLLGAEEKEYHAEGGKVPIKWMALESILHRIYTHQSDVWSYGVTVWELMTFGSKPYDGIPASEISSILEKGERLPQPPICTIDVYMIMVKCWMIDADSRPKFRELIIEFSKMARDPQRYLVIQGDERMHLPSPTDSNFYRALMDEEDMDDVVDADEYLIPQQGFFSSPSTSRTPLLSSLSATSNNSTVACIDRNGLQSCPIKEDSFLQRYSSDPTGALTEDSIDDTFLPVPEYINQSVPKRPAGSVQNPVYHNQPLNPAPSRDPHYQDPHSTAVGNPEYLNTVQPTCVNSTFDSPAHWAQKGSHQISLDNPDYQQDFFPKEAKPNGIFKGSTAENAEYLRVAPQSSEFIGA
Chain of EGFR L858R/T790M/C797S (P00533 25-1210 T790M/C797S/L858R): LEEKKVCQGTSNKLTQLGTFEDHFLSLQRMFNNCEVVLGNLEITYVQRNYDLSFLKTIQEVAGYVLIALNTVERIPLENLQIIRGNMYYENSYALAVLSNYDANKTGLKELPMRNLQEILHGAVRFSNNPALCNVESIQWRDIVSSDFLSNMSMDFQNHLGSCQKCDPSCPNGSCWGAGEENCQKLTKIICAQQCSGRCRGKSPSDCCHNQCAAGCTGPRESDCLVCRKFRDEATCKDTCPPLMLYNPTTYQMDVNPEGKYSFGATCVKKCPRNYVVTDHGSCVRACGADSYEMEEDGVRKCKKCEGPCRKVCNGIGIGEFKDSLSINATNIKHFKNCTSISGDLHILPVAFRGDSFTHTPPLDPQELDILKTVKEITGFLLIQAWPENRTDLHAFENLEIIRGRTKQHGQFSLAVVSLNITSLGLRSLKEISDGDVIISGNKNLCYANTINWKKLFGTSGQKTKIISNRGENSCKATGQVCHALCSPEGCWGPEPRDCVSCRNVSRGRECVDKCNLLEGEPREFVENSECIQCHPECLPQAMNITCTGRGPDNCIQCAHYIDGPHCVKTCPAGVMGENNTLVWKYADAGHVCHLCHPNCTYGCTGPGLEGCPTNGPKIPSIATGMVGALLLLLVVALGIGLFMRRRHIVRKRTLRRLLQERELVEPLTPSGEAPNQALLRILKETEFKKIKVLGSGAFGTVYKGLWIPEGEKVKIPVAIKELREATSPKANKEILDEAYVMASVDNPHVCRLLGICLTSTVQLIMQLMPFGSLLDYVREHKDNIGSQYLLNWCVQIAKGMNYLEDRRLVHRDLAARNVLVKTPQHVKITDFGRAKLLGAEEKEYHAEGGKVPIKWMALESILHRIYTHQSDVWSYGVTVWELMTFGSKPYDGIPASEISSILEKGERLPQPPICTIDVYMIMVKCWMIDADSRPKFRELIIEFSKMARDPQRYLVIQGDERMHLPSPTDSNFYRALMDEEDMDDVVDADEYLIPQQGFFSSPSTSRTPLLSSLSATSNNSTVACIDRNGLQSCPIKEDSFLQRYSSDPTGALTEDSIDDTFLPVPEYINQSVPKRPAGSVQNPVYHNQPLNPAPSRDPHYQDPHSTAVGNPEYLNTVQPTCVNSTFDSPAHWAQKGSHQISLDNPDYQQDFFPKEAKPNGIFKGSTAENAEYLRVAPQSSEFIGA
Chain of EGFR del19/C797S (P00533 with tags, fused parts or gaps DEL746-750/C797S): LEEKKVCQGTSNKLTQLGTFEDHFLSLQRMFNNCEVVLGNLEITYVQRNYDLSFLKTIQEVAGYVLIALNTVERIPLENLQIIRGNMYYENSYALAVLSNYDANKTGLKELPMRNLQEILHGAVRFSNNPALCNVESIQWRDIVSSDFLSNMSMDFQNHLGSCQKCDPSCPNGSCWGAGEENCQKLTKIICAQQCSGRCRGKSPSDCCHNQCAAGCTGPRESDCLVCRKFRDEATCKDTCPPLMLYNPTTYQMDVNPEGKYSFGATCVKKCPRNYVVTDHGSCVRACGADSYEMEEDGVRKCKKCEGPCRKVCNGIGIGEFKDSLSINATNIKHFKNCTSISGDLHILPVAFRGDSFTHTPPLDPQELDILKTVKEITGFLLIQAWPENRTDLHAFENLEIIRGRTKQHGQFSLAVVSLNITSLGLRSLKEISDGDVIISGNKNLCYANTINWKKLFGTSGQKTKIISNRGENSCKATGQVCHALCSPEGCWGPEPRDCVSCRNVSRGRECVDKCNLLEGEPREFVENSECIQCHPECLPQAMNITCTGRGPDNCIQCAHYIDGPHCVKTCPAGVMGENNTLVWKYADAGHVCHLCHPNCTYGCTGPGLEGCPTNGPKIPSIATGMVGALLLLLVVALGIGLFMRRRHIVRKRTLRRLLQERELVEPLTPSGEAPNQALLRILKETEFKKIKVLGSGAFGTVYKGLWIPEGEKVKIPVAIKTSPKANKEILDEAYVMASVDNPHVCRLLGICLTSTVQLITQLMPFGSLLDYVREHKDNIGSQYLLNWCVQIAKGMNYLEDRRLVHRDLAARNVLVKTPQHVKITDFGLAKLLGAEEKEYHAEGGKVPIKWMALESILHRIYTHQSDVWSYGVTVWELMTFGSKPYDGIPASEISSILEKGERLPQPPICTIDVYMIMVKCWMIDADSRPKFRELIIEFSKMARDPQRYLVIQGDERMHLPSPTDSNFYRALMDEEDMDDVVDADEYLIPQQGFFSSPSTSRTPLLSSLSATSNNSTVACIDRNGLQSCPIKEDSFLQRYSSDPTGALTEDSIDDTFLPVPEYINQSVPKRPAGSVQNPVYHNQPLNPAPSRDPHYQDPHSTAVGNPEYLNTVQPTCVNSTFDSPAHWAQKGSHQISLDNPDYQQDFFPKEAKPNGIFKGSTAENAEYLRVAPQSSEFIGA
Chain of EGFR L858R/C797S (P00533 25-1210 C797S/L858R): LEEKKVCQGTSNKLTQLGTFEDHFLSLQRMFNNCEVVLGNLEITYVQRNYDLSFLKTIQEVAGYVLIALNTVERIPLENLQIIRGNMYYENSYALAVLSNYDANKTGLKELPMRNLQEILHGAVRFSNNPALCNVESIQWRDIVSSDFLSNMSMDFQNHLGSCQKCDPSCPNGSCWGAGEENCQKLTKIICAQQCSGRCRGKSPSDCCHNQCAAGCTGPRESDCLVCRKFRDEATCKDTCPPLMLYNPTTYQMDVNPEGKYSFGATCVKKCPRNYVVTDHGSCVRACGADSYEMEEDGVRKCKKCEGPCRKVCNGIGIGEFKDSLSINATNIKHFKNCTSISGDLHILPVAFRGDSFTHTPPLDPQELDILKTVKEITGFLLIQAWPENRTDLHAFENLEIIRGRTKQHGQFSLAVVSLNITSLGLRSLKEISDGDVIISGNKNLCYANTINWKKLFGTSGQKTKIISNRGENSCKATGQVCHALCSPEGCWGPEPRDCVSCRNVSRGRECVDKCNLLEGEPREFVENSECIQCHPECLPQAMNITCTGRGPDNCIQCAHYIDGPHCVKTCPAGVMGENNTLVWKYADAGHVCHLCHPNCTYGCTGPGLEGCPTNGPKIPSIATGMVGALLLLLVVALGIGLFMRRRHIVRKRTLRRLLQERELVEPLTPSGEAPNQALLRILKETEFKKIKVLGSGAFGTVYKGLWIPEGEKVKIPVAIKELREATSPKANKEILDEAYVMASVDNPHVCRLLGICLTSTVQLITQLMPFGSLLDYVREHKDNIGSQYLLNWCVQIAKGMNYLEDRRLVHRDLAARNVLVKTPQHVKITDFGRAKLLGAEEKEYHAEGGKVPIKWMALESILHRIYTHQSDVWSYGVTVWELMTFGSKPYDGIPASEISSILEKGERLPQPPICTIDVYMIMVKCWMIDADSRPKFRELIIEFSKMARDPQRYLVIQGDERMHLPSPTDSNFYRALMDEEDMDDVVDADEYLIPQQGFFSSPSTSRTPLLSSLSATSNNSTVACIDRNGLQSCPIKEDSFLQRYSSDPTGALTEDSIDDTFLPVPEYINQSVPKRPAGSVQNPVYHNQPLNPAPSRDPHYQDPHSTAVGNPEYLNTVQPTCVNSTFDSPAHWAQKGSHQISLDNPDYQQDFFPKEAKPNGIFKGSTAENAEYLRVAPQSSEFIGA

`CN(C)S(=O)(=O)n1cc(-c2nccc(Nc3cc(NC4CCC(C)(O)CC4)c(-c4ccc(C(C)(O)C(F)(F)F)cn4)cn3)n2)cn1` (stereo not drawn) [Example 298, 4-(4-((4′-(((1s,4s)-4-Hydroxy-4-methylcyclohexyl)amino)-5-(1,1,1-trifluoro-2-hydroxypropan-2-yl)-[2,3′-bipyridin]-6′-yl)amino)pyrimidin-2-yl)-N,N-dimethyl-1H-pyrazole-1-sulfonamide]: the IC50 in experiment [1] (setting [6]) is 1.1 nM; in experiment [2] (setting [7]), 15.4 nM; in experiment [3] (setting [8]), 1.8 nM; in experiment [4] (setting [9]) it was 1.7 nM; in experiment [5] (setting [10]), 2.9 nM.
With `O=S(=O)(C1CC1)n1cc(-c2nccc(Nc3cc(N[C@H]4CC[C@@H](CO)CC4)c(-c4ccc(CO)cn4)cn3)n2)cn1` [Example 22, (6′-((2-(1-(Cyclopropylsulfonyl)-1H-pyrazol-4-yl)pyrimidin-4-yl)amino)-4′-(((1s,4s)-4-(hydroxymethyl)cyclohexyl)amino)-[2,3′-bipyridin]-5-yl)methanol], the IC50 in experiment [1] (setting [11]) came to 0.2 nM; in experiment [1] (setting [12]), 0.2 nM; in experiment [2] (setting [13]) it was 165 nM; in experiment [2] (setting [14]) it was 0.3 nM; in experiment [3] (setting [15]), 0.3 nM; in experiment [3] (setting [16]) it was 0.3 nM. Further, the IC50 in experiment [4] (setting [17]) was 1.1 nM; in experiment [4] (setting [18]), 0.2 nM; in experiment [5] (setting [19]), 0.2 nM; in experiment [5] (setting [20]), 0.1 nM.
Take `CC(C)(O)c1cnc(-c2cnc(Nc3ccnc(-c4cnn(S(=O)(=O)C5CC5)c4)n3)cc2N[C@H]2CC[C@@](C)(O)CC2)cn1` [Example 118, (1s,4s)-4-((2-((2-(1-(Cyclopropylsulfonyl)-1H-pyrazol-4-yl)pyrimidin-4-yl)amino)-5-(5-(2-hydroxypropan-2-yl)pyrazin-2-yl)pyridin-4-yl)amino)-1-methylcyclohexan-1-ol]: the IC50 in experiment [1] (setting [11]) was 0.2 nM; in experiment [1] (setting [12]), 0.1 nM; in experiment [2] (setting [13]) it was 400 nM; in experiment [3] (setting [15]) it was 0.04 nM; in experiment [3] (setting [16]), 0.1 nM; in experiment [4] (setting [17]) it was 0.7 nM. For the same molecule, the IC50 was 0.05 nM in experiment [4] (setting [18]), 0.3 nM in experiment [5] (setting [19]) and 0.1 nM in experiment [5] (setting [20]).
On to `CC(F)(F)c1ccc(-c2cnc(Nc3ccnc(-c4cnn(S(=O)(=O)C5CC5)c4)n3)cc2N[C@H]2CC[C@@H](CO)CC2)nc1` [Example 241, ((1s,4s)-4-((6′-((2-(1-(Cyclopropylsulfonyl)-1H-pyrazol-4-yl)pyrimidin-4-yl)amino)-5-(1,1-difluoroethyl)-[2,3′-bipyridin]-4′-yl)amino)cyclohexyl)methanol], for which the IC50 in experiment [1] (setting [6]) was determined as 1.8 nM; in experiment [1] (setting [21]), 6.9 nM; in experiment [2] (setting [7]), 20.3 nM; in experiment [2] (IC50 WT, 100 μM ATP) it was 2640 nM; in experiment [3] (setting [8]), 2.3 nM; in experiment [3] (setting [22]) it was 4.4 nM. Besides, the IC50 in experiment [4] (setting [9]) stood at 2.9 nM; in experiment [4] (IC50 L858R/C797S, 100 μM ATP) it was 22 nM; in experiment [5] (setting [10]) it was 6.3 nM; in experiment [5] (IC50 del19/C797S, 100 μM ATP) it was 12.9 nM.
Consider `CN(C)C[C@H]1CC[C@@H](Nc2cc(Nc3ccnc(-c4cnn(S(=O)(=O)C5CC5)c4)n3)ncc2-c2cccc(F)n2)CC1` [Example 274, N^6′-(2-(1-(Cyclopropylsulfonyl)-1H-pyrazol-4-yl)pyrimidin-4-yl)-N^4′-((1s,4s)-4-((dimethylamino)methyl)cyclohexyl)-6-fluoro-[2,3′-bipyridine]-4′,6′-diamine], for which the IC50 in experiment [1] (setting [6]) is 0.03 nM; in experiment [1] (setting [21]), 0.1 nM; in experiment [2] (setting [7]), 0.5 nM; in experiment [2] (IC50 WT, 100 μM ATP), 108 nM; in experiment [3] (setting [8]), 0.02 nM; in experiment [3] (setting [22]) it was 0.1 nM. For the same molecule, the IC50 amounted to 0.1 nM in experiment [4] (setting [9]); 0.4 nM in experiment [4] (IC50 L858R/C797S, 100 μM ATP); 0.1 nM in experiment [5] (setting [10]); 0.1 nM in experiment [5] (IC50 del19/C797S, 100 μM ATP).
Turning to `CN1CCN(c2ccc(-c3cnc(Nc4ccnc(-c5cnn(S(=O)(=O)C6CC6)c5)n4)cc3N[C@H]3CC[C@@H](CO)CC3)nc2)CC1` [Example 85, ((1s,4s)-4-((6′-((2-(1-(cyclopropylsulfonyl)-1H-pyrazol-4-yl)pyrimidin-4-yl)amino)-5-(4-methylpiperazin-1-yl)-[2,3′-bipyridin]-4′-yl)amino)cyclohexyl)methanol], the IC50 in experiment [1] (setting [11]) worked out at 0.3 nM; in experiment [1] (setting [12]) it was 0.1 nM; in experiment [2] (setting [13]), 31.7 nM; in experiment [2] (setting [14]), 0.2 nM; in experiment [3] (setting [15]) it was 0.4 nM; in experiment [3] (setting [16]) it was 0.4 nM. For the same molecule, the IC50 in experiment [4] (setting [17]) was 0.2 nM; in experiment [4] (setting [18]), 0.1 nM; in experiment [5] (setting [19]) it was 0.3 nM; in experiment [5] (setting [20]), 0.1 nM.
As for `CC(C)(F)c1ccc(-c2cnc(Nc3ccnc(-c4cnn(S(=O)(=O)C5CC5)c4)n3)cc2N[C@H]2CC[C@@H](C(C)(C)O)CC2)nc1` [Example 236, 2-((1s,4s)-4-((6′-((2-(1-(Cyclopropylsulfonyl)-1H-pyrazol-4-yl)pyrimidin-4-yl)amino)-5-(2-fluoropropan-2-yl)-[2,3′-bipyridin]-4′-yl)amino)cyclohexyl)propan-2-ol], the IC50 in experiment [1] (setting [6]) was 1.9 nM; in experiment [1] (setting [21]), 6.4 nM; in experiment [2] (setting [7]) it was 41.8 nM; in experiment [2] (IC50 WT, 100 μM ATP) it was more than 10000 nM; in experiment [3] (setting [8]) it was 2.5 nM; in experiment [3] (setting [22]), 9.1 nM. The IC50 worked out at 3 nM in experiment [4] (setting [9]); 177 nM in experiment [4] (IC50 L858R/C797S, 100 μM ATP); 9.1 nM in experiment [5] (setting [10]); 24.4 nM in experiment [5] (IC50 del19/C797S, 100 μM ATP).
Take `CN(C)CCOc1cnc(-c2cnc(Nc3ccnc(-c4cnn(S(=O)(=O)C5CC5)c4)n3)cc2NC2CCC(C)(O)CC2)cn1` (stereo not drawn) [Example 115, (1s,4s)-4-((2-((2-(1-(Cyclopropylsulfonyl)-1H-pyrazol-4-yl)pyrimidin-4-yl)amino)-5-(5-(2-(dimethylamino)ethoxy)pyrazin-2-yl)pyridin-4-yl)amino)-1-methylcyclohexan-1-ol]: the IC50 was 0.1 nM in experiment [1] (setting [11]); 0.1 nM in experiment [1] (setting [12]); more than 10000 nM in experiment [2] (setting [13]); 1.8 nM in experiment [2] (setting [14]); 0.4 nM in experiment [3] (setting [15]); 0.1 nM in experiment [3] (setting [16]). Further, the IC50 in experiment [4] (setting [17]) was determined as 0.5 nM; in experiment [4] (setting [18]) it was 0.1 nM; in experiment [5] (setting [19]), 0.8 nM; in experiment [5] (setting [20]) it was 0.4 nM.
For the molecule `CN(C)C[C@H]1CC[C@@H](Nc2cc(Nc3ccnc(-c4cnn(S(=O)(=O)C5CC5)c4)n3)ncc2-c2ccc(OC(F)(F)F)cn2)CC1` [Example 197, N^6′-(2-(1-(Cyclopropylsulfonyl)-1H-pyrazol-4-yl)pyrimidin-4-yl)-N^4′-((1s,4s)-4-((dimethylamino)methyl)cyclohexyl)-5-(trifluoromethoxy)-[2,3′-bipyridine]-4′,6′-diamine], the IC50 was 0.3 nM in experiment [1] (setting [6]); 0.5 nM in experiment [1] (setting [21]); 3 nM in experiment [2] (setting [7]); 1240 nM in experiment [2] (IC50 WT, 100 μM ATP); 0.6 nM in experiment [3] (setting [8]); 0.5 nM in experiment [3] (setting [22]). Further, the IC50 in experiment [4] (setting [9]) amounted to 0.3 nM; in experiment [4] (IC50 L858R/C797S, 100 μM ATP) it was 5.3 nM; in experiment [5] (setting [10]) it was 1 nM; in experiment [5] (IC50 del19/C797S, 100 μM ATP), 1.1 nM.
Consider `CC(C)(O)[C@H]1CC[C@@H](Nc2cc(Nc3ccnc(-c4cnn(S(=O)(=O)C5CC5)c4)n3)ncc2-c2cnc(F)cn2)CC1` [Example 186, 2-((1s,4s)-4-((2-((2-(1-(Cyclopropylsulfonyl)-1H-pyrazol-4-yl)pyrimidin-4-yl)amino)-5-(5-fluoropyrazin-2-yl)pyridin-4-yl)amino)cyclohexyl)propan-2-ol], for which the IC50 is 4.8 nM in experiment [1] (setting [21]); 744 nM in experiment [2] (setting [7]); more than 10000 nM in experiment [2] (IC50 WT, 100 μM ATP); 3.8 nM in experiment [3] (setting [8]); 29 nM in experiment [3] (setting [22]); 5.8 nM in experiment [4] (setting [9]). Further, the IC50 in experiment [4] (IC50 L858R/C797S, 100 μM ATP) came out at 165 nM; in experiment [5] (setting [10]), 11.5 nM; in experiment [5] (IC50 del19/C797S, 100 μM ATP) it was 56.8 nM.
As for `C[C@]1(O)CC[C@@H](Nc2cc(Nc3ccnc(-c4cnn(S(=O)(=O)C5CC5)c4)n3)ncc2-c2ccc(N3CC(F)(F)C3)cn2)CC1` [Example 224, (1s,4s)-4-((6′-((2-(1-(Cyclopropylsulfonyl)-1H-pyrazol-4-yl)pyrimidin-4-yl)amino)-5-(3,3-difluoroazetidin-1-yl)-[2,3′-bipyridin]-4′-yl)amino)-1-methylcyclohexan-1-ol], the IC50 in experiment [1] (setting [6]) was 0.4 nM; in experiment [1] (setting [21]), 1.4 nM; in experiment [2] (setting [7]) it was 5.2 nM; in experiment [2] (IC50 WT, 100 μM ATP), more than 10000 nM; in experiment [3] (setting [8]), 2 nM; in experiment [3] (setting [22]) it was 1.6 nM. In addition, the IC50 in experiment [4] (IC50 L858R/C797S, 100 μM ATP) was found to be 171 nM; in experiment [5] (setting [10]), 2.1 nM; in experiment [5] (IC50 del19/C797S, 100 μM ATP), 3.5 nM.
